Columns and labels:
[1] = system: cocaine-induced convulsions in Swiss Webster mice; assay: Cocaine-induced convulsions; format: in vivo; conditions: 30 mg/kg ip (highest dose tested), 15 min before cocaine 70 mg/kg ip, p < 0.05 Fisher's exact test
human μ opioid receptor = human μ opioid receptor (Homo sapiens, UniProt P35372); assay: Opioid receptor binding, [3H]DAMGO displacement, CHO cell membranes; conditions: 1.3 nM [3H]DAMGO, 120 min 25 °C
[2] = system: behavioral and neurotoxic effects of cocaine in mice; conditions: cited from earlier work
mice = conditions: ref unpublished finding, R.R. Matsumoto, Morgantown, WV; cited from earlier work

human μ opioid receptor, sequence (P35372 whole entry): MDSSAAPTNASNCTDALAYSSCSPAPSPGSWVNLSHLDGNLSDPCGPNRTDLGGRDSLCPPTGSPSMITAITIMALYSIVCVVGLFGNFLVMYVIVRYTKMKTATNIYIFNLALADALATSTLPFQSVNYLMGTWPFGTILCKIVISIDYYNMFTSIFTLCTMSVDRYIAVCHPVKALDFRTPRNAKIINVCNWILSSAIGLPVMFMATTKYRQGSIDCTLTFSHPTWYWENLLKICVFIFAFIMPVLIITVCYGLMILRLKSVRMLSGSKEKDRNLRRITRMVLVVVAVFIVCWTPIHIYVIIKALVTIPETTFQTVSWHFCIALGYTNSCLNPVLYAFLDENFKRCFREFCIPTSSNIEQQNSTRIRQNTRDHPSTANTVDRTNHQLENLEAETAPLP

## CN(CCc1ccccc1)[C@H]1CCCC[C@@H]1O (relative stereo) [Compound 6, trans-2-(Methyl(phenethyl)amino)cyclohexanol]
[1]
  Attenuation of cocaine-induced convulsions: significant attenuation of cocaine-induced convulsions
Human μ opioid receptor
  Opioid binding Ki ± SEM, μ: no affinity

## c1ccc(CCN2CCCCC2)cc1 [AC927, N-phenethylpiperidine]
[2]
  Effect on behavioral and neurotoxic effects of cocaine: attenuated the behavioral and neurotoxic effects of cocaine in mice
mice
  Therapeutic window / deaths at supratherapeutic doses: relatively narrow therapeutic window, which can result in deaths in mice at supratherapeutic doses

Reference: publication PMC8463110 (Bioorganic & medicinal chemistry, 2013)
